Data as given in patent US20020090373A1, “ADAMTS polypeptides, nucleic acids encoding them, and uses thereof” (priority 2000, published 2002).

B1: Recombinant human ADAMTS-SI (protein)
chain: FLSYPRFVEVLVVADNRMVSYHGENLQHYILTLMSIVASIYKDPSIGNLINIVIVNLIVIHNEQDGPSISFNAQTTLKNFCQWQHSKNSPGGIHHDTAVLLTRQDICRAHDKCDTLGLAELGTICDPYRSCSISEDSGLSTAFTIAHELGHVFNMPHDDNNKCKEEGVKSPQHVMAPTLNFYTNPWMWSKCSRKYITEFLDTGYGECLLNEPESRPYPLPVQLPGILYNVNKQCELIFGPGSQVCPYMMQCRRLWCNNVNGVHKGCRTQHTPWADGTECEPGKHCKYGFCVPKEMDVPVTDGSWGSWSPFGTCSRTCGGGIKTAIRECNRPEPKNGGKYCVGRRMKFKSCNTEPCLKQKRDFRDEQCAHFDGKHFNINGLLPNVRWVPKYSGILMKDRCKLFCRVAGNTAYYQLRDRVIDGTPCGQDTNDICVQGLCRQAGCDHVLNSKARRDKCGVCGGDNSSCKTVAGTFNTVHYGYNTVVRIPAGATNIDVRQHSFSGETDDDNYLALSSSKGEFLLNGNFVVTMAKREIRIGNAVVEYSGSETAVERINSTDRIEQELLLQVLSVGKLYNPDVRYSFNIPIEDKPQQFYWNSHGPWQACSKPCQGERKRKLVCTRESDQLTVSDQRCDRLPQPGHITEPCGTDCDLRWHVASRSECSAQCGLGYRTLDIYCAKYSRLDGKTEKVDDGFCSSHPKPSNREKCSGECNTGGWRYSAWTECSKSCDGGTQRRRAICVNTRNDVLDDSKCTHQEKVTIQRCSEFPCPQWKSGDWSECLVTCGKGHKHRQVWCQFGEDRLNDRMCDPETKPTSMQTCQQPECASWQAGPWGQCSVTCGQGYQLRAVKCIIGTYMSVVDDNDCNAATRPTDTQDCELPSCHPPPAAPETRRSTYSAPRTQWRFGSWTPCSATCGKGTRMRYVSCRDENGSVADESACATLPRPVAKEECSVTPCGQWKALDWSSCSVTCGQGRATRQVMCVNYSDHVIDRSECDQDYIPETDQDCSMSPCPQRTPDSGLAQHPFQNEDYRPRSASPSRTHVLGGNQWRTGPWGACSSTCAGGSQRRVVVCQDENGYTANDCVERIKPDEQRACESGPCPQWAYGNWGECTKLCGGGIRTRLVVCQRSNGERFPDLSCEILDKPPDREQCNTHACPHDAAWSTGPWSSCSVSCGRGHKQRNVYCMAKDGSHLESDYCKHLAKPHGHRKCRGGRCPKWKAGAWSQCSVSCGRGVQQRHVGCQIGTHKIARETECNPYTRPESERDCQGPRCPLYTWRAEEWQECTKTCGEGSRYRKVVCVDDNKNEVHGARCDVSKRPVDRESCSLQPCEYVWITGEWSEVPSWEL
B2: recombinant human ADAMTS-4 (protein)
chain: FASLSRFVETLVVADDKMAAFHGAGLKRYLLTVMAAAAKAFKHPSIRNPVSLVVTRLVILGSGEEGPQVGPSAAQTLRSFCAWQRGLNTPEDSDPDHFDTAILFTRQDLCGVSTCDTLGMADVGTVCDPARSCAIVEDDGLQSAFTAAHELGHVFNMLHDNSKPCISLNGPLSTSRHVMAPVMAHVDPEEPWSPCSARFITDFLDNGYGHCLLDKPEAPLHLPVTFPGKDYDADRQCQLTFGPDSRHCPQLPPPCAALWCSGHLNGHAMCQTKHSPWADGTPCGPAQACMGGRCLHMDQLQDFNIPQAGGWGPWGPWGDCSRTCGGGVQFSSRDCTRPVPRNGGKYCEGRRTRFRSCNTEDCPTGSALTFREEQCAAYNHRTDLFKSFPGPMDWVPRYTGVAPQDQCKLTCQAQALGYYYVLEPRVVDGTPCSPDSSSVCVQGRCIHAGCDRIIGSKKKFDKCMVCGGDGSGCSKQSGSFRKFRYGYNNVVTIPAGATHILVRQQGNPGHRSIYLALKLPDGSYALNGEYTLMPSPTDVVLPGAVSLRYSGATAASETLSGHGPLAQPLTLQVLVAGNPQDTRLRYSFFVPRPTPSTPRPTPQDWLHRRAQILEILRRRPWAGRK

How the values were obtained:
[1] = target: T1, recombinant human ADAMTS-4 (Homo sapiens, UniProt O75173); assay: Western blot (anti-NITEGE neoepitope) of aggrecanase substrate cleavage by ADAMTS-4 ± compound I; type: biochemical; conditions: 1 μM compound I, 1 μM substrate, 18 hours at 37° C., FIG. 8
T1 sequence (O75173 213-837): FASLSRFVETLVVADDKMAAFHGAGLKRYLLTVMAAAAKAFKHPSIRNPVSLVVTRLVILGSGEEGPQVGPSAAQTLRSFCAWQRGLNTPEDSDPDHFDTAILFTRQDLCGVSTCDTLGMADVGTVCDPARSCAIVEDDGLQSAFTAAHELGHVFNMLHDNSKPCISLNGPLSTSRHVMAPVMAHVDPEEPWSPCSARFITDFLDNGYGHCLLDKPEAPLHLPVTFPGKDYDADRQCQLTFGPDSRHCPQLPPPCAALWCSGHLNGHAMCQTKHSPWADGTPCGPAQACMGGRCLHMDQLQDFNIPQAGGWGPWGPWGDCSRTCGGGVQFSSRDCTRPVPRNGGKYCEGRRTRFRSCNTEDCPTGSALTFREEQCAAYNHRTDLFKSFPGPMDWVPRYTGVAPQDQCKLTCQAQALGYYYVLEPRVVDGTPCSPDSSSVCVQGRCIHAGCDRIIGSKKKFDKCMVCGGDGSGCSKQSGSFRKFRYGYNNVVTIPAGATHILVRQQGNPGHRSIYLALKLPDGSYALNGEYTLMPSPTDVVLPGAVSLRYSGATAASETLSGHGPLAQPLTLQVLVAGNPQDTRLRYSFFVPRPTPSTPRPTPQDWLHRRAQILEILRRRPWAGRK
Procedure: (§1) Recombinant human ADAMTS-SI (20 μl) and recombinant human ADAMTS-4 (MD Tortorella, Science, 284:1664) (20 μl) were incubated with 1 μM of aggrecanase substrate (aggrecan protein containing the interglobular domain (IGD)). The substrate is cleaved at the relevant aggrecanase site by aggrecanases such as ADAMTS-4. […] The aggrecanase substrate has been used to assess the activity of various aggrecanases, such as ADAMTS-4, and their inhibitors, such as compound I, shown below, and described in EP 1081137, published Mar. 7, 2001: [drawing 1]
(§2) Incubations were carried out in 20 μl TSC buffer (50 mM Tris, pH 7.5 100 mM NaCl, 10 mM CaCl2) with protease inhibitor cocktail (“Complete”, EDTA free from Roche: catalog number 1873580)±1 μM compound I, for 18 hours at 37° C. The reactions were stopped by the addition of EDTA to 10 mM final concentration. The reaction mixtures were prepared for SDS-PAGE by the addition of 40 μl 2× sample buffer (Novex) containing 0.5 M DTT and then separated on 4-20% Tris glycine gels (Novex). […]
(§3) Treatment of the aggrecan protein with aggrecanases results in the formation of a characteristic cleavage site in the IGD. […] The crude rabbit antiserum was affinity purified against the corresponding neoepitope sequence and absorbed against a read-through peptide to ensure specificity for the neoepitope sequence. […]

[2] = target: T2, Recombinant human ADAMTS-SI (Homo sapiens, UniProt Q9P2N4); assay: Western blot (anti-NITEGE neoepitope) of aggrecanase substrate cleavage by ADAMTS-SI ± compound I; type: biochemical; conditions: 1 μM compound I, 1 μM substrate, 18 hours at 37° C., FIG. 8
T2 construct: made in house
T2 sequence (Q9P2N4 288-1629 isoform Q9P2N4-1 limits assumed): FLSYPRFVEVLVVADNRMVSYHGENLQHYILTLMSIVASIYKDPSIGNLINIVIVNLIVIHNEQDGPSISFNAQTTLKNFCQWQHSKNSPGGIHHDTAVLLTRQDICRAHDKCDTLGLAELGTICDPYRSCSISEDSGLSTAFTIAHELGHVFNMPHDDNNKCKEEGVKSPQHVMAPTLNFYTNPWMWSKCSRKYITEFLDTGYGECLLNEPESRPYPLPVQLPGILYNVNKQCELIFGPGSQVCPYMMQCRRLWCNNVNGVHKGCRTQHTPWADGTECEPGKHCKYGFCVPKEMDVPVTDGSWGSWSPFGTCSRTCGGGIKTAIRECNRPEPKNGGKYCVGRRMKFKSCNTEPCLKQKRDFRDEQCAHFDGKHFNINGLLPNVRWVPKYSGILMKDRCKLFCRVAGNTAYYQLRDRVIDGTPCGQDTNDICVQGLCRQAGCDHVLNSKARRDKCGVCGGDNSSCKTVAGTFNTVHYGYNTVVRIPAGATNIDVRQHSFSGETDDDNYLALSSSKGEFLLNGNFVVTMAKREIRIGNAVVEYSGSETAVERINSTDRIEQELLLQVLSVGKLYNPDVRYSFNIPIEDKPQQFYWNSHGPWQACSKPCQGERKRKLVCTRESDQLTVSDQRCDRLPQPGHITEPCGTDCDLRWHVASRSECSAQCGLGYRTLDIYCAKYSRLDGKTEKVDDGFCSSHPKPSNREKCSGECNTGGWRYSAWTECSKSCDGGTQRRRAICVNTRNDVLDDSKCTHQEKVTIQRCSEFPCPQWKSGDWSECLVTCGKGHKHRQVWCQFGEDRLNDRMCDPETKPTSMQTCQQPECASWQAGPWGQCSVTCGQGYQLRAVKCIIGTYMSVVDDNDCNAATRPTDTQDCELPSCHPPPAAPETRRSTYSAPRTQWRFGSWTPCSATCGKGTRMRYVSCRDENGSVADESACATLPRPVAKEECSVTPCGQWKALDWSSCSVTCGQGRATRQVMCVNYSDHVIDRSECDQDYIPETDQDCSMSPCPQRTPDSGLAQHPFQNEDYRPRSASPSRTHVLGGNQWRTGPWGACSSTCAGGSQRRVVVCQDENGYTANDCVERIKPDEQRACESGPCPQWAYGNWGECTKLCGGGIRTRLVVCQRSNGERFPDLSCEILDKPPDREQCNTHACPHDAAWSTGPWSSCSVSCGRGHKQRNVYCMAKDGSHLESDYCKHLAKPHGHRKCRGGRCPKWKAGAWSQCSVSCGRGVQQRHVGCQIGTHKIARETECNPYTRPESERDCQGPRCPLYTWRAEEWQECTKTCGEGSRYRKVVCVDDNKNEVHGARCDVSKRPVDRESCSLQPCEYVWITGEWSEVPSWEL
Procedure: as §1, §2, §3

[3] = target: aggrecanase activity secreted by human osteoarthritic cartilage; conditions: cited from earlier work
[4] = test system: IL-1 induced aggrecan degradation in human osteoarthritic cartilage explants; conditions: cited from earlier work
[5] = test system: aggrecan degradation induced by intraarticular injection of IL-1; conditions: hamsters, intraarticular injection of IL-1, 30 mg/kg p.o.; cited from earlier work
[6] = target: aggrecanase substrate (aggrecan protein containing the interglobular domain (IGD)), uncleaved
[7] = test system: aggrecanase substrate (aggrecan protein containing the interglobular domain (IGD)); assay: Cleavage of aggrecanase substrate by recombinant enzymes (anti-NITEGE Western blot); type: biochemical; conditions: 20 μl enzyme, 1 μM substrate, 18 hours at 37° C., FIG. 8
Procedure: as §1, §2, §3

| Molecule | inhibition of ADAMTS-4 aggrecanase activity (cleavage of aggrecanase substrate) [1] | inhibition of ADAMTS-SI aggrecanase activity (cleavage of aggrecanase substrate) [2] | IC50 [3] | IC50 [4] | inhibition of aggrecan degradation [5] | cleavage of the aggrecanase substrate at the aggrecanase site (Western blot with anti-NITEGE neoepitope antibody) [6] | cleavage of aggrecanase substrate at aggrecanase site (NITEGE neoepitope) [7] |
| --- | --- | --- | --- | --- | --- | --- | --- |
| C[C@@]1(O)CCCN(S(=O)(=O)c2ccc(OCc3ccc(F)cc3Cl)cc2)[C@H]1C(=O)NO [compound I] | blocked | blocked | 4.1 nM | 8 nM | 93 % inhibition | – | – |
| B1 | – | – | – | – | – | treatment of the substrate with both ADAMTS-4 and ADAMTS-SI resulted in cleavage at the previously characterized aggrecanase cleavage site | – |
| B2 | – | – | – | – | – | treatment of the substrate with both ADAMTS-4 and ADAMTS-SI resulted in cleavage at the previously characterized aggrecanase cleavage site | resulted in cleavage at the previously characterized aggrecanase cleavage site |
